Measured values taken from the NIST ThermoML archive (doi:10.1016/j.fluid.2018.10.006).
Where “and” joins values, the source holds several entries; their conditions need not be identical. Identical values can stand only once. ± gives the expanded uncertainty stated by the source.

Conditions: 511.55 K, Fluid (supercritical or subcritical phases), Coaxial cylinder method

CCCCCC [hexane]
Conditions | thermal conductivity
3110 kPa | 0.06064 ± 0.003 W/m/K
3116 kPa | 0.06128 ± 0.003 W/m/K
3130 kPa | 0.06341 ± 0.0032 W/m/K
3140 kPa | 0.06508 ± 0.0033 W/m/K
3145 kPa | 0.06587 ± 0.0033 W/m/K
3150 kPa | 0.06678 ± 0.0033 W/m/K
3155 kPa | 0.06787 ± 0.0034 W/m/K
3160 kPa | 0.06879 ± 0.0034 W/m/K
3165 kPa | 0.0699 ± 0.0034 W/m/K
3168 kPa | 0.07058 ± 0.0034 W/m/K
3170 kPa | 0.07104 ± 0.0034 W/m/K
3173 kPa | 0.0718 ± 0.0034 W/m/K
3175 kPa | 0.07228 ± 0.0035 W/m/K
3180 kPa | 0.07336 ± 0.0035 W/m/K
3183 kPa | 0.07404 ± 0.0035 W/m/K
3185 kPa | 0.07447 ± 0.0035 W/m/K
3187 kPa | 0.07504 ± 0.0035 W/m/K
3190 kPa | 0.07571 ± 0.0035 W/m/K
3192 kPa | 0.07616 ± 0.0035 W/m/K
3193 kPa | 0.07629 ± 0.0036 W/m/K
3195 kPa | 0.07668 ± 0.0036 W/m/K
3200 kPa | 0.07761 ± 0.0036 W/m/K
3205 kPa | 0.07821 ± 0.0037 W/m/K
3212 kPa | 0.07869 ± 0.0039 W/m/K
3220 kPa | 0.07869 ± 0.0039 W/m/K
3225 kPa | 0.07855 ± 0.0039 W/m/K
3230 kPa | 0.07767 ± 0.0038 W/m/K
3235 kPa | 0.07701 ± 0.0037 W/m/K
3240 kPa | 0.07636 ± 0.0037 W/m/K
3245 kPa | 0.07571 ± 0.0036 W/m/K
3250 kPa | 0.07508 ± 0.0035 W/m/K
3255 kPa | 0.07386 ± 0.0034 W/m/K
3260 kPa | 0.07266 ± 0.0034 W/m/K
3265 kPa | 0.07151 ± 0.0033 W/m/K
3270 kPa | 0.07151 ± 0.0033 W/m/K
3275 kPa | 0.07209 ± 0.0034 W/m/K
3280 kPa | 0.07209 ± 0.0034 W/m/K
3285 kPa | 0.07209 ± 0.0034 W/m/K
3290 kPa | 0.07267 ± 0.0034 W/m/K
3295 kPa | 0.07267 ± 0.0034 W/m/K
3300 kPa | 0.07151 ± 0.0033 W/m/K
3305 kPa | 0.07151 ± 0.0033 W/m/K
3310 kPa | 0.07151 ± 0.0033 W/m/K
3315 kPa | 0.07095 ± 0.0033 W/m/K
3325 kPa | 0.07095 ± 0.0033 W/m/K
3330 kPa | 0.07095 ± 0.0033 W/m/K
3335 kPa | 0.07144 ± 0.0033 W/m/K
3340 kPa | 0.07144 ± 0.0033 W/m/K
3345 kPa | 0.07144 ± 0.0033 W/m/K
3350 kPa | 0.07144 ± 0.0033 W/m/K
3360 kPa | 0.07088 ± 0.0033 W/m/K
3365 kPa | 0.07088 ± 0.0033 W/m/K
3370 kPa | 0.07033 ± 0.0033 W/m/K
3375 kPa | 0.07033 ± 0.0033 W/m/K
3385 kPa | 0.07033 ± 0.0033 W/m/K
3395 kPa | 0.07033 ± 0.0033 W/m/K
3400 kPa | 0.07033 ± 0.0033 W/m/K
3410 kPa | 0.07088 ± 0.0033 W/m/K
3450 kPa | 0.07081 ± 0.0033 W/m/K
3455 kPa | 0.07081 ± 0.0033 W/m/K
3460 kPa | 0.07062 ± 0.0033 W/m/K and 0.07064 ± 0.0033 W/m/K
3470 kPa | 0.07062 ± 0.0033 W/m/K
3480 kPa | 0.07051 ± 0.0033 W/m/K
3490 kPa | 0.07054 ± 0.0033 W/m/K
3500 kPa | 0.07026 ± 0.0033 W/m/K
3550 kPa | 0.0701 ± 0.0033 W/m/K
3600 kPa | 0.07 ± 0.0033 W/m/K
3650 kPa | 0.06992 ± 0.0033 W/m/K
3700 kPa | 0.06992 ± 0.0033 W/m/K
3750 kPa | 0.06969 ± 0.0033 W/m/K
3800 kPa | 0.06964 ± 0.0033 W/m/K
3850 kPa | 0.06975 ± 0.0033 W/m/K
3900 kPa | 0.06992 ± 0.0033 W/m/K
3950 kPa | 0.06992 ± 0.0033 W/m/K
4000 kPa | 0.06992 ± 0.0033 W/m/K
4100 kPa | 0.07009 ± 0.0033 W/m/K
4150 kPa | 0.07009 ± 0.0033 W/m/K
4300 kPa | 0.0702 ± 0.0033 W/m/K
4400 kPa | 0.07048 ± 0.0033 W/m/K
4500 kPa | 0.07048 ± 0.0033 W/m/K
4600 kPa | 0.07077 ± 0.0033 W/m/K
4700 kPa | 0.07105 ± 0.0033 W/m/K
4800 kPa | 0.07105 ± 0.0033 W/m/K
